Measured values as given in patent US6399541B1, “Substituted 2,4-diamino-1,3,5-triazines as herbicides” (Bayer Aktiengesellschaft, priority 1997, dated 2002).

Experiments:
weeds [1] = assay: Post-emergence test; type: in vivo; conditions: cf. Table B
Method: (§1) Solvent: 5 parts by weight of acetone
(§2) Emulsifier: 1 part by weight of alkylaryl polyglycol ether
(§3) To produce a suitable preparation of active compound, 1 part by weight of active compound is mixed with the stated amount of solvent, the stated amount of emulsifier is added and the concentrate is diluted with water to the desired concentration.
(§4) Test plants which have a height of 5 to 15 cm are sprayed with the preparation of active compound in such a way that the particular amounts of active compound desired are applied per unit area. The concentration of the spray liquor is chosen such that the particular amounts of active compound desired are applied in 1000 l of water/ha.
(§5) After three weeks, the degree of damage to the plants is assessed in % damage in comparison to the development of the untreated control.
(§6) 0%=no effect (as untreated control)

Ipomoea [2] = assay: Post-emergence test/greenhouse; type: in vivo; conditions: after three weeks
Method: as §1, §2, §3, §4, §5, §6

Xanthium [3] = assay: Post-emergence test/greenhouse; type: in vivo; conditions: 125 g of ai./ha, after three weeks
Method: as §1, §2, §3, §4, §5, §6

Cassia [4] = assay: Post-emergence test/greenhouse; type: in vivo; conditions: after three weeks
Method: as §1, §2, §3, §4, §5, §6

Veronica [5] = assay: Post-emergence test/greenhouse; type: in vivo; conditions: after three weeks
Method: as §1, §2, §3, §4, §5, §6

Setaria [6] = assay: Post-emergence test/greenhouse; type: in vivo; conditions: 125 g of ai./ha, after three weeks
Method: as §1, §2, §3, §4, §5, §6

Echinochloa = assay: Post-emergence test/greenhouse; type: in vivo; conditions: 125 g of ai./ha, after three weeks
Method: as §1, §2, §3, §4, §5, §6

Matricaria [7] = assay: Post-emergence test/greenhouse; type: in vivo; conditions: 125 g of ai./ha, after three weeks
Method: as §1, §2, §3, §4, §5, §6

Alopecurus = assay: Pre-emergence test/greenhouse; type: in vivo; conditions: after three weeks
Method: as §1, §2, §3
(§7) Seeds of the test plants are sown in normal soil. After about 24 hours, the soil is sprayed with the preparation of active compound in such a way that the particular amounts of active compound desired are employed per unit area. The concentration of the spray liquor is chosen such that the particular amounts of active compound desired are applied in 1000 l of water/ha.
as §5
(§8) 0%=no effect (as untreated control) 100%=total destruction

Amaranthus = assay: Pre-emergence test/greenhouse; type: in vivo; conditions: after three weeks
Method: as §1, §2, §3, §7, §5, §8

Setaria [8] = assay: Pre-emergence test/greenhouse; type: in vivo; conditions: after three weeks
Method: as §1, §2, §3, §7, §5, §8

Abutilon = assay: Pre-emergence test/greenhouse; type: in vivo; conditions: after three weeks
Method: as §1, §2, §3, §7, §5, §8

weeds [9] = assay: Pre-emergence test; type: in vivo; conditions: cf. Table A
Method: as §1, §2, §3, §7, §5, §8

Wheat = assay: Post-emergence test/greenhouse; type: in vivo; conditions: after three weeks
Method: as §1, §2, §3, §4, §5, §6

Solanum [10] = assay: Post-emergence test/greenhouse; type: in vivo; conditions: 60 g of ai./ha, after three weeks
Method: as §1, §2, §3, §4, §5, §6

Ipomoea [11] = assay: Pre-emergence test/greenhouse; type: in vivo; conditions: 250 g of ai./ha, after three weeks
Method: as §1, §2, §3, §7, §5, §8

Reapseed = assay: Pre-emergence test/greenhouse; type: in vivo; conditions: after three weeks
Method: as §1, §2, §3, §7, §5, §8

Sorghum = assay: Pre-emergence test/greenhouse; type: in vivo; conditions: 250 g of ai./ha, after three weeks
Method: as §1, §2, §3, §7, §5, §8

Cassia [12] = assay: Pre-emergence test/greenhouse; type: in vivo; conditions: 250 g of ai./ha, after three weeks
Method: as §1, §2, §3, §7, §5, §8

Lolium = assay: Pre-emergence test/greenhouse; type: in vivo; conditions: 250 g of ai./ha, after three weeks
Method: as §1, §2, §3, §7, §5, §8

Polygonum = assay: Post-emergence test/greenhouse; type: in vivo; conditions: 60 g of ai./ha, after three weeks
Method: as §1, §2, §3, §4, §5, §6

Xanthium [13] = assay: Pre-emergence test/greenhouse; type: in vivo; conditions: 1000 g of ai./ha, after three weeks
Method: as §1, §2, §3, §7, §5, §8

Avena fatua = assay: Pre-emergence test/greenhouse; type: in vivo; conditions: after three weeks
Method: as §1, §2, §3, §7, §5, §8

Galium = assay: Pre-emergence test/greenhouse; type: in vivo; conditions: 1000 g of ai./ha, after three weeks
Method: as §1, §2, §3, §7, §5, §8

Barley [14] = assay: Post-emergence test/greenhouse; type: in vivo; conditions: 125 g of ai./ha, after three weeks
Method: as §1, §2, §3, §4, §5, §6

Solanum [15] = assay: Pre-emergence test/greenhouse; type: in vivo; conditions: 125 g of ai./ha, after three weeks
Method: as §1, §2, §3, §7, §5, §8

Cotton = assay: Pre-emergence test/greenhouse; type: in vivo; conditions: 250 g of ai./ha, after three weeks
Method: as §1, §2, §3, §7, §5, §8

Veronica [16] = assay: Pre-emergence test/greenhouse; type: in vivo; conditions: 250 g of ai./ha, after three weeks
Method: as §1, §2, §3, §7, §5, §8

Viola = assay: Pre-emergence test/greenhouse; type: in vivo; conditions: 250 g of ai./ha, after three weeks
Method: as §1, §2, §3, §7, §5, §8

Barley [17] = assay: Pre-emergence test/greenhouse; type: in vivo; conditions: 250 g of ai./ha, after three weeks
Method: as §1, §2, §3, §7, §5, §8

Matricaria [18] = assay: Pre-emergence test/greenhouse; type: in vivo; conditions: 125 g of ai./ha, after three weeks
Method: as §1, §2, §3, §7, §5, §8

Datura = assay: Pre-emergence test/greenhouse; type: in vivo; conditions: 125 g of ai./ha, after three weeks
Method: as §1, §2, §3, §7, §5, §8

Chenopodium = assay: Pre-emergence test/greenhouse; type: in vivo; conditions: 125 g of ai./ha, after three weeks
Method: as §1, §2, §3, §7, §5, §8

## CCC(Nc1nc(NC(C)=O)nc(C(C)F)n1)c1ccccc1 (racemic) [Example 2, 2-acetylamino-4-(1-fluoro-ethyl)-6-(1-phenyl-propylamino)-1,3,5-triazine]
Weeds [1]
  activity against weeds compared with known compound (A): considerably stronger activity against weeds than the known compound (A)
Ipomoea [2]; 125 g of ai./ha
  degree of damage, Ipomoea: 100%
Xanthium [3]
  degree of damage, Xanthium: 80%
Cassia [4]; 125 g of ai./ha
  degree of damage, Cassia: 100%
Veronica [5]; 125 g of ai./ha
  degree of damage, Veronica: 95%
Setaria [6]
  degree of damage, Setaria: 80%
Echinochloa
  degree of damage, Echinochloa: 80%
Matricaria [7]
  degree of damage, Matricaria: 95%
other
  melting point: 118 °C
Alopecurus; 1000 g of ai./ha
  degree of damage, Alopecurus: 90%
Amaranthus; 1000 g of ai./ha
  degree of damage, Amaranthus: 100%
Setaria [8]; 1000 g of ai./ha
  degree of damage, Setaria: 70%
Abutilon; 1000 g of ai./ha
  degree of damage, Abutilon: 100%
Weeds [9]
  action against weeds compared with known compound (A): considerably strong action against weeds than the known compound (A)

## CC(Cl)c1nc(N)nc(NC(C)c2ccccc2)n1 (racemic) [Example 18]
Weeds [1]
  activity against weeds compared with known compound (A): considerably stronger activity against weeds than the known compound (A)
Wheat; 60 g of ai./ha
  degree of damage, Wheat: 0%
Solanum [10]
  degree of damage, Solanum: 90%
Cassia [4]; 60 g of ai./ha
  degree of damage, Cassia: 70%
Veronica [5]; 60 g of ai./ha
  degree of damage, Veronica: 95%
Ipomoea [11]
  degree of damage, Ipomoea: 95%
Amaranthus; 250 g of ai./ha
  degree of damage, Amaranthus: 100%
Reapseed; 250 g of ai./ha
  degree of damage, Reapseed: 0%
Weeds [9]
  action against weeds compared with known compound (A): considerably strong action against weeds than the known compound (A)

## CC(F)c1nc(N)nc(NC(C)c2ccccc2)n1 (racemic) [Example 16]
Ipomoea [11]
  degree of damage, Ipomoea: 100%
Alopecurus; 250 g of ai./ha
  degree of damage, Alopecurus: 100%
Amaranthus; 250 g of ai./ha
  degree of damage, Amaranthus: 100%
Sorghum
  degree of damage, Sorghum: 95%
Cassia [12]
  degree of damage, Cassia: 100%
Lolium
  degree of damage, Lolium: 100%
Abutilon; 250 g of ai./ha
  degree of damage, Abutilon: 80%
Weeds [9]
  action against weeds compared with known compound (A): considerably strong action against weeds than the known compound (A)

## CCC(Nc1nc(N)nc(C(C)F)n1)c1ccccc1 (racemic) [Example 1, 2-amino-4-(1-fluoro-ethyl)-6-(1-phenyl-propyl-amino)-1,3,5-triazine]
Weeds [1]
  activity against weeds compared with known compound (A): considerably stronger activity against weeds than the known compound (A)
Ipomoea [2]; 60 g of ai./ha
  degree of damage, Ipomoea: 100%
Ipomoea [2]; 125 g of ai./ha
  degree of damage, Ipomoea: 100%
Solanum [10]
  degree of damage, Solanum: 95%
Cassia [4]; 125 g of ai./ha
  degree of damage, Cassia: 90%
Veronica [5]; 60 g of ai./ha
  degree of damage, Veronica: 95%
Veronica [5]; 125 g of ai./ha
  degree of damage, Veronica: 100%
Polygonum
  degree of damage, Polygonum: 100%
Matricaria [7]
  degree of damage, Matricaria: 80%
Alopecurus; 1000 g of ai./ha
  degree of damage, Alopecurus: 100%
Amaranthus; 1000 g of ai./ha
  degree of damage, Amaranthus: 100%
Xanthium [13]
  degree of damage, Xanthium: 100%
Avena fatua; 1000 g of ai./ha
  degree of damage, Avena fatua: 70%
Abutilon; 1000 g of ai./ha
  degree of damage, Abutilon: 70%
Galium
  degree of damage, Galium: 100%
Weeds [9]
  action against weeds compared with known compound (A): considerably strong action against weeds than the known compound (A)

## CC(Nc1nc(N)nc(C(F)(F)F)n1)c1ccccc1 (stereo not drawn) [(A), 2-Amino-4-(1-phenyl-ethylamino)-6-trifluoromethyl-1,3,5-triazine, reference compound]
Ipomoea [2]; 60 g of ai./ha
  degree of damage, Ipomoea: 80%
Ipomoea [2]; 125 g of ai./ha
  degree of damage, Ipomoea: 90%
Wheat; 60 g of ai./ha
  degree of damage, Wheat: 0%
Wheat; 125 g of ai./ha
  degree of damage, Wheat: 0%
Solanum [10]
  degree of damage, Solanum: 40%
Xanthium [3]
  degree of damage, Xanthium: 60%
Cassia [4]; 60 g of ai./ha
  degree of damage, Cassia: 40%
Cassia [4]; 125 g of ai./ha
  degree of damage, Cassia: 80%
Veronica [5]; 60 g of ai./ha
  degree of damage, Veronica: 70%
Veronica [5]; 125 g of ai./ha
  degree of damage, Veronica: 90%
Setaria [6]
  degree of damage, Setaria: 50%
Polygonum
  degree of damage, Polygonum: 80%
Echinochloa
  degree of damage, Echinochloa: 50%
Barley [14]
  degree of damage, Barley: 5%
Matricaria [7]
  degree of damage, Matricaria: 60%
Ipomoea [11]
  degree of damage, Ipomoea: 20%
Alopecurus; 250 g of ai./ha
  degree of damage, Alopecurus: 30%
Alopecurus; 1000 g of ai./ha
  degree of damage, Alopecurus: 30%
Amaranthus; 125 g of ai./ha
  degree of damage, Amaranthus: 40%
Amaranthus; 250 g of ai./ha
  degree of damage, Amaranthus: 80%
Amaranthus; 1000 g of ai./ha
  degree of damage, Amaranthus: 70%
Solanum [15]
  degree of damage, Solanum: 0%
Sorghum
  degree of damage, Sorghum: 0%
Xanthium [13]
  degree of damage, Xanthium: 70%
Cassia [12]
  degree of damage, Cassia: 20%
Cotton
  degree of damage, Cotton: 0%
Avena fatua; 250 g of ai./ha
  degree of damage, Avena fatua: 0%
Avena fatua; 1000 g of ai./ha
  degree of damage, Avena fatua: 0%
Veronica [16]
  degree of damage, Veronica: 20%
Setaria [8]; 250 g of ai./ha
  degree of damage, Setaria: 0%
Setaria [8]; 1000 g of ai./ha
  degree of damage, Setaria: 20%
Lolium
  degree of damage, Lolium: 0%
Viola
  degree of damage, Viola: 0%
Abutilon; 250 g of ai./ha
  degree of damage, Abutilon: 0%
Abutilon; 1000 g of ai./ha
  degree of damage, Abutilon: 0%
Galium
  degree of damage, Galium: 60%
Barley [17]
  degree of damage, Barley: 0%
Matricaria [18]
  degree of damage, Matricaria: 0%
Datura
  degree of damage, Datura: 0%
Reapseed; 125 g of ai./ha
  degree of damage, Reapseed: 40%
Reapseed; 250 g of ai./ha
  degree of damage, Reapseed: 40%
Chenopodium
  degree of damage, Chenopodium: 20%

## CC(Nc1nc(N)nc(C(C)(C)F)n1)c1ccccc1 (racemic) [Example 13]
Weeds [1]
  activity against weeds compared with known compound (A): considerably stronger activity against weeds than the known compound (A)
Ipomoea [2]; 125 g of ai./ha
  degree of damage, Ipomoea: 100%
Wheat; 125 g of ai./ha
  degree of damage, Wheat: 0%
Cassia [4]; 125 g of ai./ha
  degree of damage, Cassia: 95%
Veronica [5]; 125 g of ai./ha
  degree of damage, Veronica: 100%
Barley [14]
  degree of damage, Barley: 0%
Ipomoea [11]
  degree of damage, Ipomoea: 80%
Alopecurus; 250 g of ai./ha
  degree of damage, Alopecurus: 90%
Cassia [12]
  degree of damage, Cassia: 100%
Avena fatua; 250 g of ai./ha
  degree of damage, Avena fatua: 90%
Setaria [8]; 250 g of ai./ha
  degree of damage, Setaria: 80%
Viola
  degree of damage, Viola: 100%
Weeds [9]
  action against weeds compared with known compound (A): considerably strong action against weeds than the known compound (A)
